Results as given in the supplement of paper PMC10883282.

How the values were obtained:
Assay in all cases: relative viability vs DMSO control (72 h) (fraction); higher = more viable cells
[1] = tested on: G401
Method in brief: (§1)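 Sarcoma cell lines were seeded in 384-well plates at densities chosen for 80–90% confluence, then 24 h later given 2.5 µl of serially diluted compound drawn from source plates spanning 10 mM to 0.0002 mM. They were held 72 h at 37 °C, 5% CO2, with 0.1% DMSO vehicle and a 5 µM positive control included. Relative viability was read with ATPLite as percent growth and averaged over up to triplicate wells. Rescaling placed full at 1 and none at 0.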

[2] = tested on: A204
Method in brief: as §1

[3] = tested on: SYO-1
Method in brief: as §1

[4] = tested on: SW872
Method in brief: as §1

[5] = tested on: KHOS-NP
Method in brief: as §1

[6] = tested on: MES-SA
Method in brief: as §1

[7] = tested on: HT1080
Method in brief: as §1

[8] = tested on: SK-LMS-1
Method in brief: as §1

[9] = tested on: HS729
Method in brief: as §1

[10] = tested on: SW684
Method in brief: as §1

[11] = tested on: SW1353
Method in brief: as §1

[12] = tested on: VA-ES-BJ
Method in brief: as §1

CCOc1cc2ncc(C#N)c(Nc3ccc(OCc4ccccn4)c(Cl)c3)c2cc1NC(=O)/C=C/CN(C)C [Neratinib]
Conditions | relative viability
[1], 0.00017 µM | 1.02
[1], 0.00051 µM | 1
[1], 0.00152 µM | 0.998
[1], 0.00457 µM | 0.992
[1], 0.01372 µM | 1
[1], 0.04115 µM | 0.95
[1], 0.1235 µM | 0.93
[1], 0.3704 µM | 0.791
[1], 1.111 µM | 0.692
[1], 3.333 µM | 0.56
[1], 10 µM | 0.0616
[2], 0.00017 µM | 1.09
[2], 0.00051 µM | 1.09
[2], 0.00152 µM | 1.08
[2], 0.00457 µM | 1.097
[2], 0.01372 µM | 1.03
[2], 0.04115 µM | 1.06
[2], 0.1235 µM | 1.01
[2], 0.3704 µM | 0.665
[2], 1.111 µM | 0.395
[2], 3.333 µM | 0.338
[2], 10 µM | -0.00133
[3], 0.00017 µM | 0.957
[3], 0.00051 µM | 0.955
[3], 0.00152 µM | 0.938
[3], 0.00457 µM | 0.932
[3], 0.01372 µM | 0.931
[3], 0.04115 µM | 0.917
[3], 0.1235 µM | 0.875
[3], 0.3704 µM | 0.716
[3], 1.111 µM | 0.581
[3], 3.333 µM | 0.431
[3], 10 µM | -0.0166
[4], 0.00017 µM | 1.03
[4], 0.00051 µM | 1.02
[4], 0.00152 µM | 1.03
[4], 0.00457 µM | 1.03
[4], 0.01372 µM | 1.01
[4], 0.04115 µM | 0.97
[4], 0.1235 µM | 0.932
[4], 0.3704 µM | 0.76
[4], 1.111 µM | 0.609
[4], 3.333 µM | 0.492
[4], 10 µM | -0.00553
[5], 0.00017 µM | 1.042
[5], 0.00051 µM | 1.022
[5], 0.00152 µM | 1.022
[5], 0.00457 µM | 1.01
[5], 0.01372 µM | 1.04
[5], 0.04115 µM | 1.01
[5], 0.1235 µM | 1.05
[5], 0.3704 µM | 1.02
[5], 1.111 µM | 0.73
[5], 3.333 µM | 0.484
[5], 10 µM | 0.486
[6], 0.00017 µM | 0.903
[6], 0.00051 µM | 0.889
[6], 0.00152 µM | 0.924
[6], 0.00457 µM | 0.913
[6], 0.01372 µM | 0.897
[6], 0.04115 µM | 0.869
[6], 0.1235 µM | 0.79
[6], 0.3704 µM | 0.517
[6], 1.111 µM | 0.348
[6], 3.333 µM | 0.282
[6], 10 µM | 0.0189
[7], 0.00017 µM | 1.05
[7], 0.00051 µM | 1.05
[7], 0.00152 µM | 1.028
[7], 0.00457 µM | 1.04
[7], 0.01372 µM | 1.047
[7], 0.04115 µM | 1.07
[7], 0.1235 µM | 1.08
[7], 0.3704 µM | 0.992
[7], 1.111 µM | 0.726
[7], 3.333 µM | 0.603
[7], 10 µM | 0.00637
[8], 0.00017 µM | 1.03
[8], 0.00051 µM | 1
[8], 0.00152 µM | 1.06
[8], 0.00457 µM | 1.02
[8], 0.01372 µM | 1.08
[8], 0.04115 µM | 1.06
[8], 0.1235 µM | 0.943
[8], 0.3704 µM | 0.724
[8], 1.111 µM | 0.698
[8], 3.333 µM | 0.646
[8], 10 µM | 0.0104
[9], 0.00017 µM | 0.944
[9], 0.00051 µM | 0.922
[9], 0.00152 µM | 0.955
[9], 0.00457 µM | 0.905
[9], 0.01372 µM | 0.925
[9], 0.04115 µM | 0.861
[9], 0.1235 µM | 0.771
[9], 0.3704 µM | 0.672
[9], 1.111 µM | 0.639
[9], 3.333 µM | 0.645
[9], 10 µM | 0.00633
[10], 0.00017 µM | 1.16
[10], 0.00051 µM | 1.1
[10], 0.00152 µM | 1.11
[10], 0.00457 µM | 1.13
[10], 0.01372 µM | 1.16
[10], 0.04115 µM | 1.116
[10], 0.1235 µM | 1.06
[10], 0.3704 µM | 0.848
[10], 1.111 µM | 0.826
[10], 3.333 µM | 0.792
[10], 10 µM | -0.0161
[11], 0.00017 µM | 0.971
[11], 0.00051 µM | 0.955
[11], 0.00152 µM | 0.923
[11], 0.00457 µM | 0.934
[11], 0.01372 µM | 0.899
[11], 0.04115 µM | 0.807
[11], 0.1235 µM | 0.71
[11], 0.3704 µM | 0.568
[11], 1.111 µM | 0.525
[11], 3.333 µM | 0.426
[11], 10 µM | 0.0062
[12], 0.00017 µM | 0.999
[12], 0.00051 µM | 1.01
[12], 0.00152 µM | 1.02
[12], 0.00457 µM | 1
[12], 0.01372 µM | 0.969
[12], 0.04115 µM | 0.92
[12], 0.1235 µM | 0.891
[12], 0.3704 µM | 0.734
[12], 1.111 µM | 0.503
[12], 3.333 µM | 0.483
[12], 10 µM | 0.46
